Results published in PubChem BioAssay (NCI).
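These data come from cells grown in 96-well plates and exposed to compound for 48 hours at five concentrations. GI50 marks 50% less growth. TGI denotes the concentration required for complete inhibition of growth.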

Tests used:
Test in all cases: NCI anticancer screen, dose series, 48 h
[1] = test system: ACHN renal
[2] = test system: COLO 205 colon
[3] = test system: DU-145 prostate
[4] = test system: HOP-62 NSCLC
[5] = test system: SF-539 CNS
[6] = test system: SN12C renal
[7] = test system: UACC-257 melanoma
[8] = test system: HOP-92 NSCLC
[9] = test system: K-562 leukemia
[10] = test system: RXF 393 renal

`C[CH2][Hg][S]c1ccccc1C(=O)O` gave a GI50 [1] of 1.49 µM, a TGI [1] of 2.83 µM and a GI50 [2] of 1.24 µM. It also gave a TGI [2] of 2.86 µM, a GI50 [3] of 1.83 µM and a TGI [3] of 3.41 µM. The GI50 [4] was 2.58 µM, the TGI [4] was 12.3 µM and the GI50 [5] was 1.7 µM. For the same molecule, the TGI [5] was 3.32 µM, the GI50 [6] was 1.31 µM and the TGI [6] was 2.61 µM. It also gave a GI50 [7] of 1.18 µM and a TGI [7] of 2.45 µM.

`N#CCN1C(=O)c2cc([N+](=O)[O-])cc3cc([N+](=O)[O-])cc(c23)C1=O` was tested, and the TGI [1] was 26.3 µM, the TGI [2] was 36.6 µM and the TGI [4] was 41.9 µM. The TGI [8] was 32.5 µM, the TGI [9] was 33.4 µM and the TGI [10] was 21.3 µM. For the same molecule, the TGI [5] was 31.8 µM, the TGI [6] was 27.9 µM and the TGI [7] was 28.6 µM.

For `CCOC(=O)C1Nc2ccccc2[C@H]2OCC[C@@H]12` (stereo not given in full), the TGI [1] was over 100 µM, the TGI [2] was over 100 µM and the TGI [4] was over 100 µM. The TGI [9] was over 100 µM, the TGI [10] was over 100 µM and the TGI [5] was over 100 µM. It also gave a TGI [6] of over 100 µM and a TGI [7] of over 100 µM.

For `CN=C1OC2(c3ccccc3)C3=C(OC(=NC)N2C)C(=O)OC3(c2ccccc2)N1C` (stereo not given), the TGI [1] was over 100 µM, the TGI [2] was over 100 µM and the TGI [3] was over 100 µM. For the same molecule, the TGI [4] was over 100 µM, the TGI [9] was over 100 µM and the TGI [5] was over 100 µM. For the same molecule, the TGI [6] was over 100 µM and the TGI [7] was over 100 µM.

Work on `N#CCCNc1nonc1-c1nc2ccccc2n1CC(=O)c1ccc(NC(=O)[C@@H](N)CCCCN)cc1` yielded a GI50 [1] of 0.0583 µM, a TGI [1] of over 100 µM and a GI50 [2] of 0.0273 µM. It also gave a TGI [2] of 0.0709 µM, a GI50 [3] of 0.0323 µM and a TGI [3] of 0.0994 µM. The GI50 [4] was 0.0562 µM, the TGI [4] was over 100 µM and the GI50 [8] was 0.487 µM. It also gave a TGI [8] of over 100 µM, a GI50 [9] of 0.0322 µM and a TGI [9] of over 100 µM. The GI50 [10] was 0.0353 µM, the TGI [10] was over 100 µM and the GI50 [6] was 0.0498 µM. It also gave a TGI [6] of over 100 µM, a GI50 [7] of over 100 µM and a TGI [7] of over 100 µM.

`O=C1OC(=O)c2c1c(-c1ccccc1)nc1ccccc21` showed a TGI [2] of over 100 µM, a TGI [4] of over 100 µM and a TGI [9] of over 100 µM. It also gave a TGI [10] of over 100 µM, a TGI [5] of over 100 µM and a TGI [6] of over 100 µM. For the same molecule, the TGI [7] was over 100 µM.

`O=C(O)CCNS(=O)(=O)c1ccc([N+](=O)[O-])cc1` gave a TGI [1] of over 100 µM, a TGI [2] of over 100 µM and a TGI [8] of over 100 µM. It also gave a TGI [9] of over 100 µM, a TGI [10] of over 100 µM and a TGI [5] of over 100 µM. The TGI [6] was over 100 µM and the TGI [7] was over 100 µM.

In the case of `CC(=O)O[C@@H]1C[C@@]2(C)[C@@H]3CC=C4[C@@H](C[C@H](O)C(=O)C4(C)C)[C@]3(C)C(=O)C[C@]2(C)[C@H]1[C@@](C)(O)C(=O)/C=C/C(C)(C)OC(C)=O`, the TGI [1] is reported as 3.44 µM, the TGI [2] is reported as over 39.7 µM and the TGI [3] is reported as 34.1 µM. It also gave a TGI [4] of 5.29 µM, a TGI [8] of 6.98 µM and a TGI [9] of over 100 µM. The TGI [5] was 12.6 µM, the TGI [6] was over 44.8 µM and the TGI [7] was 50.4 µM.

With `COc1cc(-c2nn(-c3cccc(NC(=O)CCN4CCN(Cc5ccccc5)CC4)c3)cc2-c2ccncc2)ccc1Cl` the GI50 [1] was 1.2 µM, the TGI [1] was 12.8 µM and the GI50 [3] was 1.56 µM. It also gave a TGI [3] of 10.9 µM, a GI50 [4] of 1.38 µM and a TGI [4] of 12.4 µM. For the same molecule, the GI50 [8] was 0.79 µM, the TGI [8] was 4.44 µM and the GI50 [10] was 0.705 µM. For the same molecule, the TGI [10] was 2.28 µM, the GI50 [5] was 1.14 µM and the TGI [5] was 2.58 µM. For the same molecule, the GI50 [6] was 2.13 µM, the TGI [6] was 20.3 µM and the GI50 [7] was 1.7 µM. It also gave a TGI [7] of 3.55 µM.

`NC1=NC(=O)C(CC(=O)Nc2ccc(Cl)cc2Cl)S1` (stereo not given) gave a TGI [1] of over 100 µM, a TGI [2] of over 100 µM and a TGI [4] of over 100 µM. The TGI [9] was over 100 µM, the TGI [5] was over 100 µM and the TGI [6] was over 100 µM. The TGI [7] was over 100 µM.

In the case of `CC(C)C[C@H](NC(=O)CCn1ccc2ccccc2c1=O)B(O)O`, the GI50 [1] is reported as 1.75 µM, the TGI [1] is reported as over 100 µM and the GI50 [2] is reported as 5.06 µM. For the same molecule, the TGI [2] was over 100 µM, the GI50 [3] was 9.13 µM and the TGI [3] was over 100 µM. For the same molecule, the GI50 [4] was 4.51 µM, the TGI [4] was 22.1 µM and the GI50 [8] was 10.9 µM. The TGI [8] was 67.1 µM, the GI50 [9] was 4.97 µM and the TGI [9] was over 100 µM. For the same molecule, the GI50 [5] was 1.61 µM, the TGI [5] was 5.62 µM and the GI50 [6] was 11.2 µM. It also gave a TGI [6] of 55.4 µM, a GI50 [7] of 3.68 µM and a TGI [7] of 33.8 µM.

Work on `CC1=C(CC2C(=O)N(c3ccccc3)S(=O)(=O)NC2C)C(=O)N(c2ccccc2)S(=O)(=O)N1C` (stereo not given) yielded a TGI [1] of over 100 µM, a TGI [2] of over 100 µM and a TGI [4] of over 100 µM. The TGI [8] was over 100 µM, the TGI [9] was over 100 µM and the TGI [5] was over 100 µM. It also gave a TGI [6] of over 100 µM.

Work on `CC(=O)/C(=C\c1ccccc1O)C(=O)Nc1ccccc1C` yielded a TGI [1] of 40.9 µM, a TGI [4] of 44.7 µM and a TGI [8] of 44.9 µM. For the same molecule, the TGI [9] was over 100 µM, the TGI [10] was 37.5 µM and the TGI [5] was 42.2 µM. It also gave a TGI [7] of over 100 µM.

`O=C(c1ccccc1)c1c(CC(O)c2ccncc2)n(C(=O)c2ccccc2)c2ccccc12` (stereo not given) was tested, and the TGI [1] was 67.5 µM, the TGI [2] was 33.7 µM and the TGI [4] was 31.6 µM. The TGI [8] was 29.4 µM, the TGI [5] was 32.1 µM and the TGI [7] was 32.9 µM.

`COc1cc(C2(C)SCCCS2)cc(OC)c1OC` showed a TGI [1] of over 100 µM, a TGI [2] of over 100 µM and a TGI [4] of over 100 µM. It also gave a TGI [8] of over 100 µM, a TGI [9] of over 100 µM and a TGI [5] of over 100 µM. For the same molecule, the TGI [6] was over 100 µM and the TGI [7] was over 100 µM.

In the case of `CC1=C(C(=O)Nc2ccc(Cl)c(Cl)c2)C(c2ccc([N+](=O)[O-])cc2)C(C(=O)Nc2ccc(Cl)c(Cl)c2)=C(C)N1`, the TGI [1] is reported as 16.9 µM, the TGI [2] is reported as 3.13 µM and the TGI [4] is reported as 8.7 µM. For the same molecule, the TGI [8] was 6.06 µM, the TGI [10] was 6.16 µM and the TGI [5] was 12.1 µM. It also gave a TGI [6] of 7.3 µM and a TGI [7] of 7.84 µM.

Molecule `N#CNc1nc(N)c(-c2ccc(Cl)cc2)c(C(=O)Nc2nccs2)n1` has a TGI [1] of over 100 µM, a TGI [4] of over 100 µM and a TGI [8] of over 100 µM. For the same molecule, the TGI [9] was over 100 µM, the TGI [10] was over 100 µM and the TGI [5] was over 100 µM. It also gave a TGI [6] of over 100 µM and a TGI [7] of over 100 µM.

Molecule `COc1ccc(-c2cc(=O)c3c(O)cccc3o2)c(OC)c1OC` has a TGI [1] of over 100 µM, a TGI [2] of over 100 µM and a TGI [4] of over 100 µM. For the same molecule, the TGI [8] was over 100 µM, the TGI [9] was over 100 µM and the TGI [10] was over 100 µM. The TGI [5] was 86.9 µM, the TGI [6] was over 100 µM and the TGI [7] was over 100 µM.

`C[n+]1c2ccccc2nc2c(N)cc(N)cc21` was tested, and the GI50 [1] was 45.6 µM, the TGI [1] was over 100 µM and the GI50 [2] was 3.49 µM. For the same molecule, the TGI [2] was 19.4 µM, the GI50 [3] was 16 µM and the TGI [3] was over 100 µM. For the same molecule, the GI50 [4] was 3.48 µM, the TGI [4] was 38.1 µM and the GI50 [8] was 35.4 µM. For the same molecule, the TGI [8] was over 100 µM, the GI50 [9] was 3.07 µM and the TGI [9] was 33.2 µM. It also gave a GI50 [5] of 5.41 µM, a TGI [5] of 32.2 µM and a GI50 [6] of 2.55 µM. For the same molecule, the TGI [6] was 14 µM.

For `C=C1[C@@H](O)O[C@H]2[C@H]1C[C@H](OC(C)=O)[C@]13C(=O)O[C@H]4C[C@](C)(O)[C@H]([C@H]41)C31C=C(C)[C@]2(O)O1`, the GI50 [1] was 49.8 µM, the TGI [1] was over 100 µM and the GI50 [2] was 48.9 µM. For the same molecule, the TGI [2] was over 100 µM, the GI50 [8] was over 100 µM and the TGI [8] was over 100 µM. The GI50 [9] was 53.8 µM, the TGI [9] was over 100 µM and the GI50 [5] was 21.1 µM. It also gave a TGI [5] of 52 µM, a GI50 [6] of 26.6 µM and a TGI [6] of 95.2 µM. It also gave a GI50 [7] of 25.6 µM and a TGI [7] of 87.2 µM.
